Values after ≈ are worked out from the molar mass of the structure shown. Values joined by “and” are separate entries in the source; they are usually repeats but may differ in a detail not shown here. Equal entries are not always repeated. One block for each compound: values may come before it.
Key:
Assay in all cases: ≥ marks a high value that may be exact or a test limit, other limits are often not marked, values filed in µg/mL are converted to µM
Staphylococcus aureus = system: Staphylococcus aureus
Pseudomonas aeruginosa 2 = system: Pseudomonas aeruginosa 2
[1] = system: Escherichia coli ATCC 25922
Escherichia coli = system: Escherichia coli
Pseudomonas aeruginosa 1 = system: Pseudomonas aeruginosa 1
[2] = system: Pseudomonas aeruginosa ATCC 27853
[3] = system: Staphylococcus aureus ATCC 25923
Pseudomonas aeruginosa = system: Pseudomonas aeruginosa
Aerococcus viridans = system: Aerococcus viridans
Escherichia coli B = system: Escherichia coli B
Klebsiella pneumoniae = system: Klebsiella pneumoniae
Clostridium perfringens = system: Clostridium perfringens
Enterobacter cloacae = system: Enterobacter cloacae
Salmonella typhimurium = system: Salmonella typhimurium
Saccharomyces cerevisiae = system: Saccharomyces cerevisiae
[4] = system: Salmonella enterica subsp. enterica serovar Enteritidis
Listeria monocytogenes = system: Listeria monocytogenes
Candida albicans = system: Candida albicans
[5] = system: Staphylococcus haemolyticus
Streptococcus pneumoniae = system: Streptococcus pneumoniae
Bacillus megaterium = system: Bacillus megaterium
Vibrio cholerae = system: Vibrio cholerae
[6] = system: Lactococcus lactis AS1.1690
[7] = system: Klebsiella aerogenes CGMCC 1.876
[8] = system: Enterobacter cloacae CGMCC 1.58
Escherichia coli AS1.349 = system: Escherichia coli AS1.349
[9] = system: Enterococcus faecium CGMCC 1.2334
[10] = system: Enterococcus faecalis CGMCC 1.595
[11] = system: Klebsiella pneumoniae subsp. pneumoniae CGMCC 1.176
Bacillus cereus AS1.126 = system: Bacillus cereus AS1.126
[12] = system: Staphylococcus aureus AS1.72
[13] = system: Pseudomonas aeruginosa CGMCC 1.860
Escherichia coli K88 = system: Escherichia coli K88
Escherichia coli UB1005 = system: Escherichia coli UB1005
[14] = system: Pseudomonas aeruginosa CICC 21625
[15] = system: Pseudomonas aeruginosa PAO1
Escherichia coli K99 = system: Escherichia coli K99
[16] = system: Salmonella enterica subsp. enterica serovar Pullorum C79-13
[17] = system: Pseudomonas aeruginosa CICC 21630
Acinetobacter baumannii = system: Acinetobacter baumannii
[18] = system: Salmonella enterica subsp. enterica serovar Typhimurium C77-31
[19] = system: Salmonella enterica subsp. enterica serovar Typhimurium ATCC 14028

- MIC (Staphylococcus aureus): 0.115 µM and 0.163 µM
- MIC (Pseudomonas aeruginosa 2): 4.6 µM (≈ 10 µg/mL)
- MIC [1]: 0.575 µM (≈ 1.25 µg/mL)
- MIC (Escherichia coli): 0.405 µM (≈ 0.88 µg/mL)
- MIC (Pseudomonas aeruginosa 1): 1.15 µM (≈ 2.5 µg/mL)
- MIC [2]: 2.3 µM (≈ 5 µg/mL)
- MIC [3]: 0.0575 µM (≈ 0.125 µg/mL)
Structure (SMILES): CC[C@H](C)[C@H](NC(=O)CN)C(=O)NCC(=O)N[C@@H](C)C(=O)N[C@H](C(=O)N[C@@H](CC(C)C)C(=O)N[C@@H](CCCCN)C(=O)N[C@@H](Cc1c[nH]c2ccccc12)C(=O)N[C@@H](CC(C)C)C(=O)N1CCC[C@H]1C(=O)N[C@@H](C)C(=O)N[C@@H](CC(C)C)C(=O)N[C@H](C(=O)N[C@@H](CCCCN)C(=O)N[C@@H](CCCN=C(N)N)C(=O)N[C@@H](CCCCN)C(=O)N[C@@H](CCCN=C(N)N)C(=O)N[C@@H](CCC(N)=O)C(=O)N[C@@H](CCC(N)=O)C(=O)O)[C@@H](C)CC)C(C)C [GIGAVLKWLPALIKRKRQQ]

- MIC (Pseudomonas aeruginosa): 3.1 µM (≈ 7.5 µg/mL)
- MIC (Aerococcus viridans): 3.1 µM (≈ 7.5 µg/mL)
- MIC (Escherichia coli B): 6.25 µM (≈ 15.1 µg/mL)
- MIC (Staphylococcus aureus): 6.25 µM (≈ 15.1 µg/mL)
- MIC (Klebsiella pneumoniae): 6.25 µM (≈ 15.1 µg/mL)
- MIC (Clostridium perfringens): ≥ 50 µM
- MIC (Enterobacter cloacae): 12.5 µM (≈ 30.2 µg/mL)
- MIC (Salmonella typhimurium): 3.1 µM (≈ 7.5 µg/mL)
- MIC (Saccharomyces cerevisiae): ≥ 50 µM
- MIC [4]: 3.1 µM (≈ 7.5 µg/mL)
- MIC (Listeria monocytogenes): 25 µM (≈ 60.4 µg/mL)
- MIC (Candida albicans): 50 µM (≈ 121 µg/mL)
- MIC (Streptococcus pneumoniae): 6.25 µM (≈ 15.1 µg/mL)
- MIC (Bacillus megaterium): 25 µM (≈ 60.4 µg/mL)
Structure (SMILES): CC[C@H](C)[C@H](NC(=O)[C@H](CC(C)C)NC(=O)[C@H](CO)NC(=O)[C@@H](NC(=O)[C@@H](NC(=O)[C@H](CC(C)C)NC(=O)CN)C(C)C)[C@@H](C)O)C(=O)N[C@@H](CCCCN)C(=O)NCC(=O)N[C@@H](C)C(=O)NCC(=O)N[C@@H](CCCCN)C(=O)N[C@@H](CC(C)C)C(=O)N[C@@H](CC(C)C)C(=O)NCC(=O)NCC(=O)N[C@@H](CC(C)C)C(=O)N[C@@H](Cc1ccccc1)C(=O)NCC(=O)N[C@@H](CO)C(=O)N[C@H](C(=O)N[C@H](C(=O)NCC(=O)NCC(=O)N[C@@H](CCC(N)=O)C(=O)N[C@@H](CO)C(=O)O)[C@@H](C)O)C(C)C [GLVTSLIKGAGKLLGGLFGSVTGGQS]
- MIC [5]: ≥ 50 µM
- MIC (Vibrio cholerae): 25 µM (≈ 60.4 µg/mL)

- MIC [6]: 25 µM (≈ 32 µg/mL)
- MIC [7]: ≥ 100 µM
- MIC [8]: ≥ 100 µM
- MIC (Escherichia coli AS1.349): 12.5 µM (≈ 16 µg/mL)
- MIC [9]: 12.5 µM (≈ 16 µg/mL)
- MIC [10]: 12.5 µM (≈ 16 µg/mL)
- MIC [11]: ≥ 100 µM
- MIC (Bacillus cereus AS1.126): 3.13 µM (≈ 4.01 µg/mL)
- MIC [12]: 12.5 µM (≈ 16 µg/mL)
- MIC [13]: 12.5 µM (≈ 16 µg/mL)
Structure (SMILES): NC(N)=NCCC[C@H](NC(=O)[C@H](Cc1cnc[nH]1)NC(=O)[C@H](Cc1c[nH]c2ccccc12)NC(=O)[C@H](Cc1ccccc1)NC(=O)[C@H](CCCN=C(N)N)NC(=O)[C@H](CCCN=C(N)N)NC(=O)[C@H](Cc1c[nH]c2ccccc12)NC(=O)[C@@H](N)Cc1cnc[nH]1)C(=O)O [HWRRFWHR]

- MIC (Escherichia coli K88): 4 µM (≈ 7.74 µg/mL)
- MIC (Pseudomonas aeruginosa): > 64 µM
- MIC (Escherichia coli UB1005): 16 µM (≈ 31 µg/mL)
- MIC [14]: ≥ 64 µM
- MIC [15]: > 64 µM
- MIC (Klebsiella pneumoniae): 32 µM (≈ 61.9 µg/mL)
- MIC (Escherichia coli K99): 8 µM (≈ 15.5 µg/mL)
- MIC [1]: 16 µM (≈ 31 µg/mL)
- MIC [16]: 16 µM (≈ 31 µg/mL)
- MIC [17]: ≥ 64 µM
- MIC (Escherichia coli): 16 µM (≈ 31 µg/mL)
- MIC (Acinetobacter baumannii): 8 µM (≈ 15.5 µg/mL)
- MIC [18]: 16 µM (≈ 31 µg/mL)
- MIC [19]: 16 µM (≈ 31 µg/mL)
- MIC [2]: > 64 µM
Structure (SMILES): CC[C@H](C)[C@H](N)C(=O)N[C@@H](CCCN=C(N)N)C(=O)N1CCC[C@H]1C(=O)N[C@H](C(=O)N[C@H](C(=O)N[C@@H](CCCN=C(N)N)C(=O)N1CCC[C@H]1C(=O)N[C@H](C(=O)N[C@H](C(=O)N[C@@H](CCCN=C(N)N)C(=O)N1CCC[C@H]1C(=O)N[C@H](C(=O)N[C@H](C(=O)N[C@@H](CCCN=C(N)N)C(=O)N1CCC[C@H]1C(=O)N[C@H](C(N)=O)[C@@H](C)CC)[C@@H](C)CC)[C@@H](C)CC)[C@@H](C)CC)[C@@H](C)CC)[C@@H](C)CC)[C@@H](C)CC [IRPIIRPIIRPIIRPI]
